Results reported in US20020127605A1 (priority 2000, published 2002).
Read-outs that look alike come from different tables or passages of the source.

Legend:
[1] = biological target: T1, recombinant rat CyPA-GST fusion protein (Rattus norvegicus, UniProt P10111); test: Rotamase (prolyl peptidyl cis-trans isomerase) inhibition, chymotrypsin-coupled cuvette assay; assay type: biochemical
T1 construct: made in house; host or cells: E. coli BL21
Excerpt: (§1) A number of substrates for rotamase are known in the art or can be derived from those known. Typically, the substrate contacts a sample containing a protein with rotamase activity and the conversion of the substrate is detected after a period of time. The method for detecting conversion of the substrate will vary with the particular substrate chosen. One method has been termed the Ki test (See Harding, et al., Nature, 341:758-760 (1989). The cis-trans isomerization of an alanine-proline bond in a model substrate, N-succinyl-Ala-Ala-Pro-Phe-p-nitroanilide, is monitored spectrophotometrically in a chymotrypsin-coupled assay. The action of chymotrypsin releases p-nitroaniline from only the trans form of the substrate. The amount of p-nitroaniline can be monitored in a spectrophotometer, for example. Other methods of detecting the presence of p-nitroaniline can also be used. The inhibition of this reaction caused by different concentrations of inhibitor is determined and the data are analyzed as a change in first-order rate constant as a function of inhibitor concentration, which yields the Ki value.
(§2) The following were added to a plastic cuvette: […] of ice cold assay buffer (25 mM HEPES, pH 7.8, 100 mM NaCl), 10 μL of CyP A (2.5 μM in 10 mM Tris-Cl pH 7.5, 100 mM NaCl, 1 mM dithiothreitol), 25 μL of chymotrypsin (50 mg/ml in 1 mM HCl), and 10 μL of test compound, at various concentrations, in dimethyl sulfoxide. The reaction was initiated by the addition of 5 μL of substrate (succinyl-Ala-Phe-Pro-Phe-para-nitroanilide, 5 mg/mL in 470 mM LiCl in trifluoroethanol). The absorbance at 390 nm versus time was monitored for 90 seconds using a spectrophotometer and the rate constants were determined from the absorbance versus time data files.
(§3) The IC50 values that were obtained for representative compounds in the following Table I refer to the concentration that inhibits 50% of the rotamase activity in a sample. […] The Cyclophilin utilized was a recombinant rat CyPA-GST fusion protein: CypA was amplified from rat brain cDNA using standard PCR methods, primed with the following sequences: 5′ CCCCCCGGGAGTCAACCCCACCGTGTTCTTCGA 3′ and 5′ GGAGATCTAGAGTTGTCCACAGTCGGAGATGGT 3′. The resulting fragment (573 base pairs) was cloned into pCRII and amplified. The CyP sequence was cut out with Smal and EcoRl and cloned into the Smal/EcoRl sites in pGEX2TK (Pharmacia). This plasmid was transformed into BL21 E. coli cells for expression of the GST-CyPA fusion protein.

[2] = biological target: T2, human recombinant CyPA (Homo sapiens, UniProt P62937); test: Rotamase inhibition, chymotrypsin-coupled cuvette assay (asterisked values); assay type: biochemical
T2 sequence (P62937 whole entry): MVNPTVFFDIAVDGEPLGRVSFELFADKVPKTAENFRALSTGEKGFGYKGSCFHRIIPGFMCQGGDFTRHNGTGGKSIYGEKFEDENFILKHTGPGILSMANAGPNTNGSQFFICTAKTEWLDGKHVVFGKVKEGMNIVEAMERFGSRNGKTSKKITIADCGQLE
Excerpt: as §1, §2, §3

[3] = system: Sprague-Dawley rat lumbar spinal cord slices; test: Neuroprotection assay in spinal cord slice preparations (THA-induced cell death); assay type: cell-based; details: THA 200 μM + compound 10 μM
Procedure: Neuroprotection Assay in Spinal Cord Slice Preparations: All cultures were derived from postnatal day 8 (P8) Sprague-Dawley rat lumbar spinal cord slices of 325 micron thickness, prepared using a commercially available Mcllwain tissue chopper. Each experiment consisted of two 6-well plates with 5 slices from 4 different animals per well. Media changes were performed every 3 to 4 days. Cultures were treated with THA [L(−)-threo-3-hydroxyaspartic acid; Tocris Cookson Inc., Ballwin, Mo.] at 200 μM+compound (10 μM) after one week in culture. The control was an untreated sample with 0.1% DMSO as vehicle. The THA control was a THA treated sample with 0.1% DMSO as vehicle. Two wells were used per condition. One media change with new THA and compounds was performed. […] Quantification of surviving neurons was performed on a Zeiss Axiovert microscope. Neuronal survival was determined by observing an intact neuronal cell body with processes located ventrally of the central canal in each hemisphere. […] Each hemisphere was counted individually. The statistics were performed with StatView™ software on a minimum of three different experiments per condition and significance was determined as compared to THA control. The percent of protection was determined from the average number of living neurons by the following equation: (drug treatment condition−THA control)/(Untreated control−THA control). […]

[4] = system: striatal tyrosine hydroxylase-immunoreactive fibres; test: MPTP-lesioned mouse model of Parkinson's disease, striatal TH fiber density; assay type: in vivo; details: 10 mg/kg s.c. in Intralipid once daily days 1-5, one hour prior to MPTP; analysis day seven
Excerpt: MPTP (N-methyl-4-phenyl-1,2,3,6-tetrahydropyridine) is a systemically available neurotoxin specific to nigrostriatal dopaminergic neurons, i.e. to the cells that degenerate in human Parkinson's disease. Administration of MPTP to mice leads to a selective partial destruction of the mesotelencephalic dopaminergic projection, and to a loss of dopamine and dopaminergic fibres in the corpus striatum, which is the main forebrain target of midbrain dopaminergic neurons.
Young adult male CD1 albino mice (Harlan—Sprague Dawley; 22-25 g) were dosed i.p. with the dopamine cell-specific neurotoxin N-methyl-4-phenyl-1,2,3,6-tetrahydropyridine (MPTP hydrochloride, calculated as 34 mg/kg free base), dissolved in saline at a concentration of 3.4 mg/ml free base once daily on days one to five. […]
Blinded analysis of TH fiber density in the central striatum was performed at 630× magnification. […] The percentage of sample field covered by TH positive processes and terminals was calculated using an image analysis program (“Simple,” Compix Inc., Pittsburgh, Pa.). The mean striatal innervation density was calculated for each group. The magnitude of striatal deafferentation due to the MPTP lesion was assessed by dividing the observed striatal innervation values obtained in MPTP/vehicle treated cases by the mean striatal innervation density in the Vehicle/Vehicle group and expressed as % loss. […]

[5] = biological target: T2, human recombinant CyPA; test: Semiautomated microtiter plate assay of rotamase activity inhibition; assay type: biochemical; details: 30 minute preincubation at 4° C., read-out: IC50 (rotamase inhibition, modified plate reader assay)
Procedure: Semiautomated Assay of Rotamase Activity Inhibition: Rotamase inhibition was determined using a semiautomated microtiter plate assay modification of the above described assay [see Küillertz et al., Clin. Chem. 44, 502-508 (1998)]. All dilutions of CyPA, peptide substrate, and chymotrypsin were made in 35 mM ice-cold HEPES buffer. Fifty μL of CyPA solution were added to 50 μL of peptide substrate solution (Phe-Pro-Phe p-nitroanilide, 0.16 mg/ml) in a glass microtiter well plate (the concentration of human recombinant CyP being adjusted so that the reaction rate is increased by a factor of 3 as compared to an uncatalyzed control reaction wherein the peptide substrate is degraded by chymotrypsin alone, in the absence of CyPA and test compound). Using a Beckman Multimek™ 96 automated 96-channel pipettor, 5 μL of test compound solution, or a DMSO blank, were added to each well for a 30 minute preincubation at 4° C. One hundred μL of chymotrypsin solution (1 mg/mL) were added to each well and the absorbance at 390 nm versus time was monitored for 9-10 minutes using a BioRad Ultramark plate reader maintained at 4° C. and the rate constants were determined from the absorbance versus time data files. The cyclophilin utilized was a human recombinant CyPA [Yoo et al., J. Mol. Biol., 269 (1997) 780-95].
IC50 values which were obtained for representative compounds using this modified plate reader assay of rotamase inhibition are given in the following Table II: […]

[6] = human recombinant CyPA, values with asterisk, read-out: IC50 (rotamase activity)

T1 sequence (P10111 2-164): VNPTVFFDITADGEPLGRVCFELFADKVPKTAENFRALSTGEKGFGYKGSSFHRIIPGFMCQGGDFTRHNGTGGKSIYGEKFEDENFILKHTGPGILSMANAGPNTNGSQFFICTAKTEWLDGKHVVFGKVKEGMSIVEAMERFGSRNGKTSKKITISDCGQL

IC50 [2, 6] [nM]	IC50 [5] [nM]	Compound	other results
		O=C(Nc1cccc(N(S(=O)(=O)c2ccc3ccccc3c2)S(=O)(=O)c2ccc3ccccc3c2)c1)c1cc(Cl)cc(Cl)c1 [Compound 8]	IC50 [1]: 701 nM; IC50 [2]: 804 nM
		O=C(Nc1cc(Cl)cc(Cl)c1)N[C@H]1CCCC[C@H]1NC(=O)Nc1cc(Cl)cc(Cl)c1 [Compound 15a]	IC50 [1]: 610 nM; IC50 [2]: 521 nM; protection from THA-induced cell death [3]: complete protection; SMI-32 immunoreactive neurons per ventral hemisphere ([3]; untreated control 26.4±4.2, THA control 15.97±2.04, mean±standard error): 26.5±2.7 cells/ventral hemisphere; protection of striatal tyrosine hydroxylase-immunoreactive fibres [4]: 72.4%
733		O=S(=O)(Oc1cccc(NC(=S)Nc2cc(Cl)cc(Cl)c2)c1)c1c(F)c(F)c(F)c(F)c1F [Compound 22, 3-({[(3,5-dichlorophenyl)amino]thioxomethyl}amino)phenyl 2,3,4,5,6-pentafluorobenzenesulfonate]	
512		S=C(Nc1cc(Cl)cc(Cl)c1)Nc1cccc(C=NN(c2ccccc2)c2ccccc2)c1 [Compound 21, ({3-[2-aza-2-(diphenylamino)vinyl]phenyl}amino)[(3,5-dichlorophenyl)amino]methane-1-thione]	
464	3760	O=C(NNC(=O)c1cccc(NC(=O)c2cccc(OCc3ccccc3)c2)c1)c1cc(Cl)cc(Cl)c1 [Compound 30, 1-{3-[(3-Benzyloxy)phenylcarboxamido]benzoyl}-2-(3,5-dichlorobenzoyl)hydrazine]	
85	713	O=C(CCCCc1ccccc1)Nc1cccc(C(=O)NNC(=S)Nc2ccc(Cl)c(Cl)c2)c1 [Compound 33, 1-{3-[(5-Phenyl)valeroylamino]benzoyl}-4-(3,4-dichlorophenyl)thiosemicarbazide]	
	372	O=C(CCCCc1ccccc1)Nc1cccc(S(=O)(=O)NNC(=S)Nc2ccc(Cl)c(Cl)c2)c1 [Compound 35]	
974	2710	O=C(NNS(=O)(=O)c1ccc(Cl)c(Cl)c1)c1cccc(NC(=O)c2cccc(OCc3ccccc3)c2)c1 [Compound 31, 1-{3-[(3-Benzyloxy)phenylcarboxamido]benzoyl}-2-(3,4-dichlorobenzenesulfonyl)hydrazine]	
	130	O=C(CCCCCc1cccc(C(F)(F)F)c1)Nc1cccc(S(=O)(=O)NC(=S)Nc2ccc(Cl)c(Cl)c2)c1 [Compound 45]	
	2060	S=C(Nc1ccc(I)cc1)NC1CCCCC1NC(=S)Nc1ccc(I)cc1 (centres unmarked) [Compound 13, [(4-iodophenyl)amino]{[2-({[(4-iodophenyl)amino]thioxomethyl}amino)cyclohexyl]amino}methane-1-thione]	IC50 ([1]; recombinant rat CyPA-GST fusion protein, values without asterisk, read-out: IC50 (rotamase activity)): 680 nM
		O=C(Nc1cccc(N(S(=O)(=O)c2cc(Cl)cc(Cl)c2)S(=O)(=O)c2cc(Cl)cc(Cl)c2)c1)c1cc(Cl)cc(Cl)c1 [Compound 8a]	IC50 [1]: 364 nM; protection of striatal tyrosine hydroxylase-immunoreactive fibres [4]: 37,2%
	532	O=C(CCCCCCc1ccccc1)Nc1cccc(C(=O)NNC(=S)Nc2ccc(Cl)c(Cl)c2)c1 [Compound 37, 1-{3-[(7-Phenyl)heptanoylamino]benzoyl}-4-(3,4-dichlorophenyl)thiosemicarbazide]	
	19100	O=C(CCCCc1ccccc1)Nc1cccc(S(=O)(=O)NC(=O)Nc2ccc(Cl)c(Cl)c2)c1 [Compound 34B]	
	883	O=C(CCCCc1ccccc1)Nc1cccc(-c2nnc(Nc3ccc(Cl)c(Cl)c3)o2)c1 [Compound 40B, 5-Phenyl-pentanoic acid {3-[5-(3,4-dichloro-phenylamino)-[1,3,4]oxadiazol-2-yl]-phenyl}-amide]	
	309	O=S(=O)(c1cc(Cl)cc(Cl)c1)N(c1cccc(N(S(=O)(=O)c2ccc3ccccc3c2)S(=O)(=O)c2ccc3ccccc3c2)c1)S(=O)(=O)c1cc(Cl)cc(Cl)c1 [Compound 9, (3-{Bis[(3,5-dichlorophenyl)sulfonyl]amino}phenyl)bis(2-naphthylsulfonyl)amine]	
	9050	L-N-[3-(6-Phenylhexanoylamino)benzoyl]proline 3,4-dichlorobenzamide [Compound 36]	
